According to the supplement of paper PMC13380429:

What was measured:
Conditions in all cases: 72 h
Caco-2 [1] = assay: cell viability relative to DMSO; higher = less toxic
Calu-3 [2] = assay: as above
HepG2 [3] = assay: as above
U2OS [4] = assay: as above
Vero E6 [5] = assay: as above
Caco-2 [6] = assay: relative viability EC50 (midpoint between 100% and the lowest measured viability); higher = less toxic
Calu-3 [7] = assay: as above
HepG2 [8] = assay: as above
U2OS [9] = assay: as above
Vero E6 [10] = assay: as above
Caco-2 [11] = assay: drug sensitivity score (DSS) for viability; higher = more toxic; extreme values may be limits of the assay
Calu-3 [12] = assay: as above
HepG2 [13] = assay: as above
U2OS [14] = assay: as above
Vero E6 [15] = assay: as above

| Structure (SMILES) | cell viability (Caco-2 [1]; 1 nM) [%] | cell viability (Caco-2 [1]; 10 nM) [%] | cell viability (Caco-2 [1]; 100 nM) [%] | cell viability (Caco-2 [1]; 1000 nM) [%] | cell viability (Caco-2 [1]; 10000 nM) [%] | cell viability (Calu-3 [2]; 1 nM) [%] | cell viability (Calu-3 [2]; 10 nM) [%] | cell viability (Calu-3 [2]; 100 nM) [%] | cell viability (Calu-3 [2]; 1000 nM) [%] | cell viability (Calu-3 [2]; 10000 nM) [%] | cell viability (HepG2 [3]; 1 nM) [%] | cell viability (HepG2 [3]; 10 nM) [%] | cell viability (HepG2 [3]; 100 nM) [%] | cell viability (HepG2 [3]; 1000 nM) [%] | cell viability (HepG2 [3]; 10000 nM) [%] | cell viability (U2OS [4]; 1 nM) [%] | cell viability (U2OS [4]; 10 nM) [%] | cell viability (U2OS [4]; 100 nM) [%] | cell viability (U2OS [4]; 1000 nM) [%] | cell viability (U2OS [4]; 10000 nM) [%] | cell viability (Vero E6 [5]; 1 nM) [%] | cell viability (Vero E6 [5]; 10 nM) [%] | cell viability (Vero E6 [5]; 100 nM) [%] | cell viability (Vero E6 [5]; 1000 nM) [%] | cell viability (Vero E6 [5]; 10000 nM) [%] | relative viability EC50 (Caco-2 [6]) [µM] | relative viability EC50 (Calu-3 [7]) [µM] | relative viability EC50 (HepG2 [8]) [µM] | relative viability EC50 (U2OS [9]) [µM] | relative viability EC50 (Vero E6 [10]) [µM] | drug sensitivity score (Caco-2 [11]) | drug sensitivity score (Calu-3 [12]) | drug sensitivity score (HepG2 [13]) | drug sensitivity score (U2OS [14]) | drug sensitivity score (Vero E6 [15]) |
| --- | --- | --- | --- | --- | --- | --- | --- | --- | --- | --- | --- | --- | --- | --- | --- | --- | --- | --- | --- | --- | --- | --- | --- | --- | --- | --- | --- | --- | --- | --- | --- | --- | --- | --- | --- |
| O=C(O)c1cc2cccc([N+](=O)[O-])c2[nH]1 | 98 | 91.4 | 88.4 | 101 | 116 | 90.8 | 101 | 100 | 99.5 | 111 | 102 | 99.2 | 98.8 | 112 | 112 | 100 | 97.9 | 101 | 102 | 104 | 97.2 | 99.2 | 93.6 | 97.6 | 110 | > 10 | > 10 | > 10 | > 10 | > 10 | 0 | 0 | 0 | 0 | 0 |
| CCCN(CCC)[C@H]1CCc2cccc(O)c2C1 [8-hydroxy-DPAT] | 101 | 101 | 98 | 98.8 | 101 | 99.2 | 105 | 97.4 | 101 | 102 | 102 | 102 | 93.6 | 109 | 92.2 | 96.9 | 98 | 99.1 | 102 | 99.9 | 97 | 94.5 | 99.2 | 89.3 | 104 | > 10 | > 10 | > 10 | > 10 | > 10 | 0 | 0 | 0 | 0 | 0 |
| COc1cc(C(=O)NS(=O)(=O)c2ccccc2C)ccc1Cc1cn(C)c2ccc(NC(=O)OC3CCCC3)cc12 [zafirlukast] | 92.3 | 104 | 105 | 97.8 | 99.2 | 96.9 | 101 | 97.2 | 100 | 110 | 104 | 101 | 109 | 94.6 | 96.6 | 92.7 | 98.4 | 103 | 105 | 100 | 96.2 | 92.5 | 91.2 | 94.2 | 94.6 | > 10 | > 10 | > 10 | > 10 | > 10 | 0 | 0 | 0 | 0 | 0 |
| CCCCCCCCCCC(CO)CCCCCCCC (stereo not given) [2-octyldodecan-1-ol] | 96.1 | 103 | 98.9 | 93.1 | 98.2 | 98.5 | 88.2 | 98.2 | 100 | 102 | 96.8 | 95.8 | 102 | 102 | 98.3 | 96.6 | 98 | 97.3 | 101 | 95.9 | 98.4 | 97.3 | 97.4 | 93.5 | 99.7 | > 10 | > 10 | > 10 | > 10 | > 10 | 0 | 0 | 0 | 0 | 0 |
| Cc1cc(C)c2c(c1)[C@@H](N(Cc1cc(C(F)(F)F)cc(C(F)(F)F)c1)c1nnn(C)n1)CCCN2C[C@H]1CC[C@H](C(=O)O)CC1 [evacetrapib] | 90.6 | 94.9 | 108 | 99.8 | 97.3 | 97 | 88.9 | 100 | 96.9 | 89.9 | 97 | 100 | 95.6 | 99.5 | 104 | 98.1 | 100 | 97.5 | 103 | 91.9 | 96.1 | 97.3 | 95.7 | 93.3 | 102 | > 10 | > 10 | > 10 | > 10 | > 10 | 0 | 0 | 0 | 0 | 0 |
| CCOc1ccc(C[C@H]2NC(=O)CCSSC[C@@H](C(=O)N3CCC[C@H]3C(=O)N[C@@H](CCCN)C(=O)NCC(N)=O)NC(=O)[C@H](CC(N)=O)NC(=O)[C@H]([C@@H](C)O)NC(=O)[C@H]([C@@H](C)CC)NC2=O)cc1 [atosiban] | 93.1 | 108 | 102 | 102 | 91.8 | 103 | 105 | 103 | 118 | 98.9 | 107 | 99.5 | 92.8 | 90.4 | 97.4 | 100 | 99.1 | 94.9 | 100 | 98.7 | 102 | 96.2 | 110 | 102 | 100 | > 10 | > 10 | > 10 | > 10 | > 10 | 0 | 0 | 0 | 0 | 0 |
